ChEMBL document CHEMBL5608182, “Synthesis and evaluation of neuroactive steroids with novel pharmacophore at C-21 let identify a compound with advantageous PK profile and higher EC50 and Emax as PAM on GABAA receptor” (Eur J Med Chem, 2024)

Tests used:
[1] = biological target: GABA-A receptor; alpha-1/beta-2/gamma-2 (Homo sapiens) (UniProt P14867+P47870+P18507); assay: (§1) Positive allosteric modulation of synaptic alpha1beta2gamma2 GABA-A receptor (unknown origin) transfected in LTK cells assessed as potentiation of GABA-induced peak current amplitude by measuring maximal efficacy at 0.01 to 10 uM at -80 mV holding potential preincubated for 30 secs followed by GABA stimulation for 2 secs by Q-patch assay relative to control; assay type: cell-based; conditions: filed as positive allosteric modulator, dose 0.01-10 µM, time 32.0 sec
[2] = biological target: T1, GABA-A receptor; alpha-1/beta-2/gamma-2 (Homo sapiens, UniProt P14867+P18507+P47870); assay: (§2) Positive allosteric modulation of synaptic alpha1beta2gamma2 GABA-A receptor (unknown origin) transfected in LTK cells assessed as potentiation of GABA-induced peak current amplitude at -80 mV holding potential preincubated for 30 secs followed by GABA stimulation for 2 secs by Q-patch assay; assay type: cell-based
T1 sequence (P14867 whole entry): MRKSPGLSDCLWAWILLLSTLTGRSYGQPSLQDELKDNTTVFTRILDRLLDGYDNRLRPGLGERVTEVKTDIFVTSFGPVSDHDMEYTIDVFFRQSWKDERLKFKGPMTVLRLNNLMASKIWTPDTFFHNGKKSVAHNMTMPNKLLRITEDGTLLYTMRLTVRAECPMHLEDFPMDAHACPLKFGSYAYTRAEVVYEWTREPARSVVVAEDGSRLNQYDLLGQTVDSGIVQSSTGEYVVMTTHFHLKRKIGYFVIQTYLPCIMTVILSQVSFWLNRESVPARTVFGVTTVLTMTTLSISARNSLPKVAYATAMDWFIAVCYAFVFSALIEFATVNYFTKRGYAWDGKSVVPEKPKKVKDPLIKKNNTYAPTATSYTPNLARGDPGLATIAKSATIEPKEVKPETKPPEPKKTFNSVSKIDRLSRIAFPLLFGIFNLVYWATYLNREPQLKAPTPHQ
T1 sequence (P47870 whole entry): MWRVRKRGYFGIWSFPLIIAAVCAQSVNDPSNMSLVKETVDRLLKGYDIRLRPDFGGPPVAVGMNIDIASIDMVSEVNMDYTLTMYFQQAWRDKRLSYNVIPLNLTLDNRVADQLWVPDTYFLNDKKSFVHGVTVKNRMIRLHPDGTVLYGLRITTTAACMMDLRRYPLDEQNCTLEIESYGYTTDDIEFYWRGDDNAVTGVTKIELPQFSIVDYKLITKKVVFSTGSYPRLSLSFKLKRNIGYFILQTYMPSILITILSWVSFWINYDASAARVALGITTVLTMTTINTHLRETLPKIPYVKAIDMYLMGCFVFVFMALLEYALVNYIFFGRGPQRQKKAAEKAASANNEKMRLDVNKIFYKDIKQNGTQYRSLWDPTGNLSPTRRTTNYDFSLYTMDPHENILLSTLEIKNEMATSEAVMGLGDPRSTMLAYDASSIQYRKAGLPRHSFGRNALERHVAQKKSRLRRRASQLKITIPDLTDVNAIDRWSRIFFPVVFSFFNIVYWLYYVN
T1 sequence (P18507 whole entry): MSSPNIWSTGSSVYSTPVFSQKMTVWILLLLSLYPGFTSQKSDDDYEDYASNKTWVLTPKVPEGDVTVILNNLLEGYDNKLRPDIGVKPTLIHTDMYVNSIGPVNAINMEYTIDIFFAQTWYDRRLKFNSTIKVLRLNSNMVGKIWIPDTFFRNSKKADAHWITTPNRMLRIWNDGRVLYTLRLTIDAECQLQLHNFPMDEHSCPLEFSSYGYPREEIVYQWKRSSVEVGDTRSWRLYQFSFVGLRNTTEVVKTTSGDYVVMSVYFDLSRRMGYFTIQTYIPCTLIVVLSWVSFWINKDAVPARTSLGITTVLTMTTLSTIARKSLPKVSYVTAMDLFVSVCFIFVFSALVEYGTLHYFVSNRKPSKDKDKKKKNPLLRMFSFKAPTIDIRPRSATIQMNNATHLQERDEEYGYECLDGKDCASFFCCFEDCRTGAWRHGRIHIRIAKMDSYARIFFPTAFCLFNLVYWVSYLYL

[3] = biological target: Gamma-aminobutyric acid receptor subunit alpha-4/beta3/delta (Homo sapiens, UniProt O14764+P28472+P48169); assay: as §2, with “extrasynaptic alpha4beta3delta” for “synaptic alpha1beta2gamma2”, “CHO” for “LTK”, “manual patch” for “Q-patch”; assay type: cell-based
[4] = biological target: Gamma-aminobutyric acid receptor subunit alpha-4/beta3/delta (Homo sapiens) (UniProt P28472+P48169+O14764); assay: as §1, with “extrasynaptic alpha4beta3delta” for “synaptic alpha1beta2gamma2”, “CHO” for “LTK”, “manual patch” for “Q-patch”; assay type: cell-based; conditions: filed as positive allosteric modulator, dose 0.01-10 µM, time 32.0 sec
[5] = Metabolic stability in Sprague-Dawley rat liver microsomes assessed as intrinsic clearance at 1 uM preincubated for 10 mins followed by NADPH addition by LC-MS analysis; assay type: ADME, Microsome; conditions: read-out: CLH
[6] = Metabolic stability in Sprague-Dawley rat liver microsomes assessed as compound remaining at 1 uM preincubated for 10 mins followed by NADPH addition by LC-MS analysis; assay type: ADME, Microsome; conditions: read-out: Stability
[7] = Metabolic stability in human liver microsomes assessed as compound remaining at 1 uM preincubated for 10 mins followed by NADPH addition by LC-MS analysis; assay type: ADME, Microsome; conditions: read-out: Stability
[8] = Metabolic stability in human liver microsomes assessed as intrinsic clearance at 1 uM preincubated for 10 mins followed by NADPH addition by LC-MS analysis; assay type: ADME, Microsome; conditions: read-out: CLH
[9] = biological target: GABA-A receptor; anion channel; assay: Inhibition of [35S]TBPS binding to GABA-A receptor in Sprague-Dawley rat brain cortical membrane incubated for 90 mins by liquid scintillation spectrometry; assay type: cell membranes, Cortex

Chain of Gamma-aminobutyric acid receptor subunit alpha-4/beta3/delta (P28472 whole entry): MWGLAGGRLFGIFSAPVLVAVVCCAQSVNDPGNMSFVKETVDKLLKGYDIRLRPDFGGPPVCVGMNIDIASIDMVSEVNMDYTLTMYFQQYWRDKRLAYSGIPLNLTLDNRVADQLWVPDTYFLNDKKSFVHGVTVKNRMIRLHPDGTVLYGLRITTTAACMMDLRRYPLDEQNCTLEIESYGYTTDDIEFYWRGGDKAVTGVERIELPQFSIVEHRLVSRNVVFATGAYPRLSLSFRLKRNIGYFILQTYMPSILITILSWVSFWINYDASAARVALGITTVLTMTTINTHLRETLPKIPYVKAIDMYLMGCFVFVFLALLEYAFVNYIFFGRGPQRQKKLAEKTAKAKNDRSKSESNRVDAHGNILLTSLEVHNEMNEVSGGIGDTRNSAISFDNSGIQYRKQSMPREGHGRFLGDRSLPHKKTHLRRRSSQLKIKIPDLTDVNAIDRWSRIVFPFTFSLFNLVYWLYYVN
Chain of Gamma-aminobutyric acid receptor subunit alpha-4/beta3/delta (P48169 whole entry): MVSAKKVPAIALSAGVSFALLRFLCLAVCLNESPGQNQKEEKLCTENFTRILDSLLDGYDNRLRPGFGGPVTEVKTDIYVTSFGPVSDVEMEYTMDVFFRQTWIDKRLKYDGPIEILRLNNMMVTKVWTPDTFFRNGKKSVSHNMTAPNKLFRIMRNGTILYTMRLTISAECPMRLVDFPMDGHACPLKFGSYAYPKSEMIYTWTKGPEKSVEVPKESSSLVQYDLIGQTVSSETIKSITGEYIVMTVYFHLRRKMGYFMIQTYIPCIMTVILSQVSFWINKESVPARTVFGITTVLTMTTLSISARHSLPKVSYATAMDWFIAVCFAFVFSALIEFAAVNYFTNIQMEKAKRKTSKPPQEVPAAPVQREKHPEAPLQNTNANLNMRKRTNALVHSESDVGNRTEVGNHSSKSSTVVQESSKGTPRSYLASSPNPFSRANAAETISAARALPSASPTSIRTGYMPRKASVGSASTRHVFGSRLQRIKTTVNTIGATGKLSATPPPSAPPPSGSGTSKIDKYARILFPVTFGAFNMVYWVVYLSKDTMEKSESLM
Chain of Gamma-aminobutyric acid receptor subunit alpha-4/beta3/delta (O14764 whole entry): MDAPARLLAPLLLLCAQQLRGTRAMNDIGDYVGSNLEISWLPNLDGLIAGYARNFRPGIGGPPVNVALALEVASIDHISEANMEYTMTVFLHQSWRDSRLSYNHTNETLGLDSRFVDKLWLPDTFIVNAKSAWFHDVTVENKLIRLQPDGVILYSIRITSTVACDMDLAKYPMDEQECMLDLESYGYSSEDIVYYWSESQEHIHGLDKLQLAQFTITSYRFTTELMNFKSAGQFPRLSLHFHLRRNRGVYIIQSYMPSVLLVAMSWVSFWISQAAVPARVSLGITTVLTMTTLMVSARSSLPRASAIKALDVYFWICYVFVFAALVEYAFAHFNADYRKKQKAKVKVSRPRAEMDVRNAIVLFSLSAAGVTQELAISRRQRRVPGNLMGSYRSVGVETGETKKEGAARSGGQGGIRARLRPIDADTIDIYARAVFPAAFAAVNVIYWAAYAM

Row | Compound | Emax [1] [%] | EC50 [2] [nM] | EC50 [3] [nM] | Emax [4] [%] | CLint scaled at 1 µM [5] [mL/min/kg] | remaining at 1 µM [6] [%] | remaining at 1 µM [7] [%] | CLint scaled at 1 µM [8] [mL/min/kg] | IC50 [9] [nM]
1 | C[C@@]1(O)CC[C@H]2[C@H](CC[C@@H]3[C@@H]2CC[C@]2(C)[C@@H](C(=O)Cn4cnn(CC(F)(F)F)c4=O)CC[C@@H]32)C1 | 378 | 548 | 1240 | 1280 | – | – | – | – | –
2 | Cn1ncn(CC(=O)[C@H]2CC[C@H]3[C@@H]4CC[C@@H]5C[C@](C)(O)CC[C@@H]5[C@H]4CC[C@]23C)c1=O | 242 | 444 | 305 | 497 | – | – | – | – | –
3 | C[C@@]1(O)CC[C@H]2[C@H](CC[C@@H]3[C@@H]2CC[C@]2(C)[C@@H](C(=O)Cn4cnn(-c5cccc(C#N)c5)c4=O)CC[C@@H]32)C1 | 1050 | 112 | 50 | 683 | – | – | – | – | –
4 | C[C@@]1(O)CC[C@H]2[C@H](CC[C@@H]3[C@@H]2CC[C@]2(C)[C@@H](C(=O)Cn4cnn(-c5nccs5)c4=O)CC[C@@H]32)C1 | 763 | 330 | 126 | 633 | – | – | – | – | –
5 | C[C@@]1(O)CC[C@H]2[C@H](CC[C@@H]3[C@@H]2CC[C@]2(C)[C@@H](C(=O)Cn4cnn(-c5ccc6c(c5)OCO6)c4=O)CC[C@@H]32)C1 | 387 | 139 | 266 | 1200 | – | – | – | – | –
6 | C[C@@]1(O)CC[C@H]2[C@H](CC[C@@H]3[C@@H]2CC[C@]2(C)[C@@H](C(=O)Cn4cnn(-c5cc(F)ccn5)c4=O)CC[C@@H]32)C1 | 446 | 340 | 68 | 720 | – | – | – | – | –
7 | COc1cccc(-n2ncn(CC(=O)[C@H]3CC[C@H]4[C@@H]5CC[C@@H]6C[C@](C)(O)CC[C@@H]6[C@H]5CC[C@]34C)c2=O)c1 | 410 | 26 | 21 | 570 | 176 | 14.2 | 43.5 | 24 | –
8 | C[C@@]1(O)CC[C@H]2[C@H](CC[C@@H]3[C@@H]2CC[C@]2(C)[C@@H](C(=O)Cn4cnn(C5CCCC5)c4=O)CC[C@@H]32)C1 | 691 | 192 | 203 | 830 | – | – | – | – | –
9 | C[C@@]1(O)CC[C@H]2[C@H](CC[C@@H]3[C@@H]2CC[C@]2(C)[C@@H](C(=O)Cn4cnn(-c5ccccc5)c4=O)CC[C@@H]32)C1 | 430 | 90 | 29 | 430 | – | – | – | – | –
10 | C[C@@]1(O)CC[C@H]2[C@H](CC[C@@H]3[C@@H]2CC[C@]2(C)[C@@H](C(=O)Cn4ncn(-c5cccc(F)c5)c4=O)CC[C@@H]32)C1 | 1260 | 371 | 112 | 334 | – | – | – | – | 1
11 | C[C@@]1(O)CC[C@H]2[C@H](CC[C@@H]3[C@@H]2CC[C@]2(C)[C@@H](C(=O)Cn4cnn(-c5cccc(F)n5)c4=O)CC[C@@H]32)C1 | 724 | 368 | 360 | 966 | – | – | – | – | –
12 | CC(C)(C)n1ncn(CC(=O)[C@H]2CC[C@H]3[C@@H]4CC[C@@H]5C[C@](C)(O)CC[C@@H]5[C@H]4CC[C@]23C)c1=O | 806 | 310 | 268 | 749 | – | – | – | – | –
13 | C[C@@]1(O)CC[C@H]2[C@H](CC[C@@H]3[C@@H]2CC[C@]2(C)[C@@H](C(=O)Cn4cnn(-c5cc(F)cc(F)c5)c4=O)CC[C@@H]32)C1 | 1040 | 154 | 35 | 441 | – | – | – | – | –
14 | C[C@@]1(O)CC[C@H]2[C@H](CC[C@@H]3[C@@H]2CC[C@]2(C)[C@@H](C(=O)Cn4ccn(-c5cccc(F)c5)c4=O)CC[C@@H]32)C1 | 594 | 241 | 139 | 552 | – | – | – | – | 1
15 | C[C@@]1(O)CC[C@H]2[C@H](CC[C@@H]3[C@@H]2CC[C@]2(C)[C@@H](C(=O)Cn4cnn(-c5ccccc5F)c4=O)CC[C@@H]32)C1 | 710 | 171 | 107 | 541 | – | – | – | – | –
16 | C[C@@]1(O)CC[C@H]2[C@H](CC[C@@H]3[C@@H]2CC[C@]2(C)[C@@H](C(=O)Cn4cnn(-c5cccc(N)c5)c4=O)CC[C@@H]32)C1 | 786 | 349 | 213 | 1070 | – | – | – | – | –
17 | C[C@@]1(O)CC[C@H]2[C@H](CC[C@@H]3[C@@H]2CC[C@]2(C)[C@@H](C(=O)Cn4cnn(-c5cccc(OC(F)(F)F)c5)c4=O)CC[C@@H]32)C1 | 629 | 182 | 41 | 1580 | – | – | – | – | –
18 | C[C@@]1(O)CC[C@H]2[C@H](CC[C@@H]3[C@@H]2CC[C@]2(C)[C@@H](C(=O)Cn4cnn(-c5cncc(F)c5)c4=O)CC[C@@H]32)C1 | 618 | 145 | 150 | 601 | – | – | – | – | –
19 | C[C@@]1(O)CC[C@H]2[C@H](CC[C@@H]3[C@@H]2CC[C@]2(C)[C@@H](C(=O)Cn4cnn(-c5ccc(F)cc5)c4=O)CC[C@@H]32)C1 | 390 | 220 | 170 | 410 | – | – | – | – | –
20 | C[C@@]1(O)CC[C@H]2[C@H](CC[C@@H]3[C@@H]2CC[C@]2(C)[C@@H](C(=O)Cn4cnn(-c5cccc(F)c5F)c4=O)CC[C@@H]32)C1 | 445 | 126 | 42 | 526 | – | – | – | – | –
21 | C[C@@]1(O)CC[C@H]2[C@H](CC[C@@H]3[C@@H]2CC[C@]2(C)[C@@H](C(=O)Cn4cnn(C5CCCCC5)c4=O)CC[C@@H]32)C1 | 873 | 585 | 237 | 685 | – | – | – | – | –
22 | CCn1ncn(CC(=O)[C@H]2CC[C@H]3[C@@H]4CC[C@@H]5C[C@](C)(O)CC[C@@H]5[C@H]4CC[C@]23C)c1=O | 632 | 190 | 270 | 526 | – | – | – | – | –
23 | C[C@@]1(O)CC[C@H]2[C@H](CC[C@@H]3[C@@H]2CC[C@]2(C)[C@@H](C(=O)Cn4cnn(CC5CC5)c4=O)CC[C@@H]32)C1 | 727 | 163 | 122 | 931 | 280 | 5.9 | 26.4 | 38 | –
24 | C[C@@]1(O)CC[C@H]2[C@H](CC[C@@H]3[C@@H]2CC[C@]2(C)[C@@H](C(=O)Cn4cnn(-c5ccc(F)cc5F)c4=O)CC[C@@H]32)C1 | 692 | 784 | 89 | 542 | – | – | – | – | –
25 | C[C@@]1(O)CC[C@H]2[C@H](CC[C@@H]3[C@@H]2CC[C@]2(C)[C@@H](C(=O)Cn4cnn(-c5cc(F)ccc5F)c4=O)CC[C@@H]32)C1 | 347 | 340 | 79 | 743 | – | – | – | – | –
